Laboratory results published in the Kinase Knowledgebase extract (Sharma et al. 2016).

target: CDK2 (UniProt P24941); assay: Enzyme Assay

**Q.** Which IC50 does the source give for `N[C@H]1CC[C@H](NC(=O)c2n[nH]cc2NC(=O)c2c(F)cccc2F)CC1` here?
**A.** < 20 µM

**Q.** Which IC50 does the source give for `CN1CCC(NC(=O)c2n[nH]cc2NC(=O)c2cccc(Cl)c2Cl)CC1` here?
**A.** < 20 µM

**Q.** For `CCOc1ccccc1C(=O)Nc1c[nH]nc1C(=O)NC1CCNCC1`, which IC50 is on record?
**A.** < 20 µM

**Q.** How did the IC50 turn out when `O=C(Nc1c[nH]nc1C(=O)NC1CCNCC1)c1ccccc1` was run?
**A.** < 750 µM

**Q.** For `CC(NC(=O)c1n[nH]cc1NC(=O)c1c(F)cccc1F)c1ccccc1` (stereo unspecified), which IC50 is on record?
**A.** < 20 µM

**Q.** Which IC50 does the source give for `COc1cccc(F)c1C(=O)Nc1c[nH]nc1C(=O)NC1CCN(C(=O)OC(C)(C)C)CC1` here?
**A.** < 20 µM

**Q.** Which IC50 does the source give for `CC(C)(C)C1CCC(NC(=O)c2n[nH]cc2NC(=O)c2ccc(CN3CCCC3)o2)CC1` (stereo unspecified) here?
**A.** < 20 µM

**Q.** With `CN1CCC(NC(=O)c2n[nH]cc2NC(=O)c2cccc3c2OCCO3)CC1` as the compound, how does the IC50 read?
**A.** < 20 µM

**Q.** For `O=C(Nc1c[nH]nc1C(=O)NC1CCNCC1)c1ccccc1OC(F)(F)F`, which IC50 is on record?
**A.** < 20 µM

**Q.** How did the IC50 turn out when `CN1CCN(c2cc(F)cc(C(=O)Nc3c[nH]nc3C(=O)NC3CCCCC3)c2)CC1` was run?
**A.** < 20 µM

**Q.** Which IC50 does the source give for `Cc1onc(-c2ccccc2)c1C(=O)Nc1c[nH]nc1C(=O)NC1CCNCC1` here?
**A.** < 750 µM

**Q.** For `O=C(N[C@H]1CC[C@@H](N2CCOCC2)CC1)c1n[nH]cc1NC(=O)c1c(F)cccc1F`, which IC50 is on record?
**A.** < 20 µM

**Q.** With `CC(C)(C)C1CCC(NC(=O)c2n[nH]cc2NC(=O)c2ccc(CN3CCOCC3)o2)CC1` (stereo unspecified) as the compound, how does the IC50 read?
**A.** < 20 µM

**Q.** With `O=C(NCc1ccco1)c1n[nH]cc1NC(=O)c1c(F)cccc1F` as the compound, how does the IC50 read?
**A.** < 20 µM

**Q.** `COc1cccc(F)c1C(=O)Nc1c[nH]nc1C(=O)NC1CCC(C(C)(C)C)CC1` (stereo unspecified) was tested. Which IC50 did it give?
**A.** < 20 µM

**Q.** Which IC50 does the source give for `CO[C@H]1CC[C@H](NC(=O)c2n[nH]cc2NC(=O)c2c(Cl)cccc2Cl)CC1` here?
**A.** < 20 µM

**Q.** Which IC50 does the source give for `O=C(Nc1c[nH]nc1C(=O)NC1CCNCC1)c1ccccc1N1CCOCC1` here?
**A.** < 20 µM

**Q.** With `O=C(NC1CCN(c2cccc(Cl)n2)CC1)c1n[nH]cc1NC(=O)c1c(F)cccc1F` as the compound, how does the IC50 read?
**A.** < 20 µM

**Q.** How did the IC50 turn out when `CN1CCC(N2CCC(NC(=O)c3n[nH]cc3NC(=O)c3c(F)cccc3F)CC2)CC1` was run?
**A.** < 20 µM

**Q.** Which IC50 does the source give for `O=C(NCc1ccccc1)Nc1c[nH]nc1C(=O)N[C@H]1CC[C@H](O)CC1` here?
**A.** < 750 µM

**Q.** Which IC50 does the source give for `O=C(NC1CCN(c2ccccn2)CC1)c1n[nH]cc1NC(=O)c1c(F)cccc1F` here?
**A.** < 20 µM

**Q.** Which IC50 does the source give for `COc1ccccc1C(=O)Nc1c[nH]nc1C(=O)NC1CCNCC1` here?
**A.** < 20 µM

**Q.** `COc1ccc(F)cc1C(=O)Nc1c[nH]nc1C(=O)NC1CCN(C)CC1` was tested. Which IC50 did it give?
**A.** < 20 µM

**Q.** Which IC50 does the source give for `O=C(NC1CCN(CC2CC2)CC1)c1n[nH]cc1NC(=O)c1c(F)cccc1F` here?
**A.** < 20 µM

**Q.** With `COCCN1CCC(NC(=O)c2n[nH]cc2NC(=O)c2c(Cl)cccc2Cl)CC1` as the compound, how does the IC50 read?
**A.** < 20 µM

**Q.** Which IC50 does the source give for `O=C(NC1CCN(CC(F)(F)F)CC1)c1n[nH]cc1NC(=O)c1c(F)cccc1F` here?
**A.** < 20 µM

**Q.** For `CC(C)(C)OC(=O)N1CCC(NC(=O)c2n[nH]cc2NC(=O)c2c(F)cc(F)cc2F)CC1`, which IC50 is on record?
**A.** < 20 µM

**Q.** `CC(C)N1CCC(NC(=O)c2n[nH]cc2NC(=O)c2c(F)cccc2F)CC1` was tested. Which IC50 did it give?
**A.** < 20 µM

**Q.** With `O=C(NC1CCNCC1)c1n[nH]cc1NC(=O)c1c(F)cc(F)cc1F` as the compound, how does the IC50 read?
**A.** < 20 µM

**Q.** Which IC50 does the source give for `O=C(NCc1cccnc1)c1n[nH]cc1NC(=O)c1c(F)cccc1F` here?
**A.** < 20 µM

**Q.** For `CS(=O)(=O)N1CCC(NC(=O)c2n[nH]cc2NC(=O)c2c(F)cccc2F)CC1`, which IC50 is on record?
**A.** < 20 µM

**Q.** `Cc1ccc(C(=O)Nc2c[nH]nc2C(=O)NC2CCN(C)CC2)cc1` was tested. Which IC50 did it give?
**A.** < 20 µM

**Q.** Which IC50 does the source give for `CC(C)(C)CNC(=O)Nc1c[nH]nc1C(=O)N[C@H]1CC[C@H](O)CC1` here?
**A.** < 20 µM

**Q.** Which IC50 does the source give for `O=C(N[C@H]1CC[C@H](N2CCS(=O)(=O)CC2)CC1)c1n[nH]cc1NC(=O)c1c(F)cccc1F` here?
**A.** < 20 µM

**Q.** Which IC50 does the source give for `CN1CCC(NC(=O)c2n[nH]cc2NC(=O)c2cc(Cl)ccc2Cl)CC1` here?
**A.** < 20 µM

**Q.** With `O=C(Nc1c[nH]nc1C(=O)NC1CCNCC1)c1ccc(OC(F)F)cc1` as the compound, how does the IC50 read?
**A.** < 20 µM

**Q.** With `COCCN1CCC(NC(=O)c2n[nH]cc2NC(=O)c2c(F)cccc2F)CC1` as the compound, how does the IC50 read?
**A.** < 20 µM

**Q.** `O=C(NC1CCN(c2ncccn2)CC1)c1n[nH]cc1NC(=O)c1c(F)cccc1F` was tested. Which IC50 did it give?
**A.** < 20 µM

**Q.** Which IC50 does the source give for `COc1ccccc1C(=O)Nc1c[nH]nc1C(=O)N[C@H]1CC[C@H](O)CC1` here?
**A.** < 20 µM

**Q.** `O=C(Nc1ccccc1)Nc1c[nH]nc1C(=O)N[C@H]1CC[C@H](O)CC1` was tested. Which IC50 did it give?
**A.** < 20 µM

**Q.** `CC(C)(C)C1CCC(NC(=O)c2n[nH]cc2NC(=O)c2ccccc2)CC1` (stereo unspecified) was tested. Which IC50 did it give?
**A.** < 750 µM
